Experimental data from patent US11084800B2 (Achillion Pharmaceuticals, Inc., priority 2017, dated 2021).
pIC50: −log10 of the molar value.

What follows are compounds tested against Human Factor D (Homo sapiens (Human), UniProt P00746) (assay: Human Factor D Assay). Conditions: Factor D inhibition, assay of Example 10; read-out: IC5 (Stars).
Assay type: biochemical
Summary of the method: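 Serum-purified Factor D (80 nM final) preincubated 5 min at room temperature with compound in 50 mM Tris, 1 M NaCl, pH 7.5. Z-L-Lys-SBz and DTNB added at 100 μM each; A405 followed every 30 s for 30 min. IC50 from nonlinear regression of rates versus concentration.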

Human Factor D, sequence (P00746 26-253): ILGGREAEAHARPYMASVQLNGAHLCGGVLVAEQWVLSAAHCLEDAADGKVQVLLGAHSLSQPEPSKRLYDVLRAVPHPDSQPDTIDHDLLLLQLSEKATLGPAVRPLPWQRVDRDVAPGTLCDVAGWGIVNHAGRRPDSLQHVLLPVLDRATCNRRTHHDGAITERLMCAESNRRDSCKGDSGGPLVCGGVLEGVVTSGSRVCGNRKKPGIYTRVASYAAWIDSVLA

`CC(=O)c1nn(CC(=O)N2[C@H](C(=O)Nc3nc(Br)ccc3C)C[C@@]3(C)C[C@@H]23)c2c(C(F)CF)cc(-c3cnc(C)nc3)cc12` (stereo partly drawn) [Compound 237, (1R,3S,5R)-2-(2-(3-acetyl-7-(1,2-difluoroethyl)-5-(2-methylpyrimidin-5-yl)-1H-indazol-1-yl)acetyl)-N-(6-bromo-3-methylpyridin-2-yl)-5-methyl-2-azabicyclo[3.1.0]hexane-3-carboxamide] and `CC(=O)c1nn(CC(=O)N2[C@H](C(=O)Nc3nc(Br)ccc3C)C[C@@]3(C)C[C@@H]23)c2c(C(O)CF)cc(-c3cnc(C)nc3)cc12` (stereo partly drawn) [Compound 238, (1R,3S,5R)-2-(2-(3-acetyl-7-(2-fluoro-1-hydroxyethyl)-5-(2-methylpyrimidin-5-yl)-1H-indazol-1-yl)acetyl)-N-(6-bromo-3-methylpyridin-2-yl)-5-methyl-2-azabicyclo[3.1.0]hexane-3-carboxamide] cannot be ordered by pIC50: over 6.00 for the first, over 6.00 for the second.

`CC(=O)c1nn(CC(=O)N2[C@H]3C[C@@]3(CC#N)C[C@H]2C(=O)Nc2nc(Br)ccc2C)c2cnc(-c3cnc(C)nc3)cc12` [Compound 239, (1S,3S,5S)-2-(2-(3-acetyl-5-(2-methylpyrimidin-5-yl)-1H-pyrazolo[3,4-c]pyridin-1-yl)acetyl)-N-(6-bromo-3-methylpyridin-2-yl)-5-(cyanomethyl)-2-azabicyclo[3.1.0]hexane-3-carboxamide] and `CC(=O)c1nn(CC(=O)N2[C@@H](C(=O)Nc3nc(Br)ccc3C)C[C@]3(CC#N)C[C@H]23)c2cnc(-c3cnc(C)nc3)cc12` [Compound 240, (1S,3R,5S)-2-(2-(3-acetyl-5-(2-methylpyrimidin-5-yl)-1H-pyrazolo[3,4-c]pyridin-1-yl)acetyl)-N-(6-bromo-3-methylpyridin-2-yl)-5-(cyanomethyl)-2-azabicyclo[3.1.0]hexane-3-carboxamide] fall in the same range of pIC50: 5.00 to 6.00 for the first, 5.00 to 6.00 for the second.

`CC(=O)c1nn(CC(=O)N2C[C@H]3C[C@H]3[C@H]2C(=O)Nc2nc(Br)ccc2C)c2c(C)nc(-c3cnc(C)nc3)cc12` [Compound 241, (1R,2S,5S)-3-(2-(3-acetyl-7-methyl-5-(2-methylpyrimidin-5-yl)-1H-pyrazolo[3,4-c]pyridin-1-yl)acetyl)-N-(6-bromo-3-methylpyridin-2-yl)-3-azabicyclo[3.1.0]hexane-2-carboxamide] and `CC(=O)c1nn(CC(=O)N2[C@H](C(=O)Nc3nc(Br)ccc3C)C[C@@]3(CN4C[C@H]5CCC[C@H]5C4)C[C@@H]23)c2cnc(-c3cnc(C)nc3)cc12` [Compound 245, (1R,3S,5R)-2-(2-(3-acetyl-5-(2-methylpyrimidin-5-yl)-1H-pyrazolo[3,4-c]pyridin-1-yl)acetyl)-N-(6-bromo-3-methylpyridin-2-yl)-5-(((3aR,6a5)-hexahydrocyclopenta [c]pyrrol-2(1H)-yl)methyl)-2-azabicyclo[3.1.0]hexane-3-carboxamide] cannot be ordered by pIC50: over 6.00 for the first, over 6.00 for the second.

Compound `CC(=O)c1nn(CC(=O)N2[C@H](C(=O)Nc3nc(Br)ccc3C)C[C@@]3(CN4CC5(CCCC5)C4)C[C@@H]23)c2cnc(-c3cnc(C)nc3)cc12` [Compound 246, (1R,3S,5R)-5-(2-azaspiro[3.4]octan-2-ylmethyl)-2-(2-(3-acetyl-5-(2-methylpyrimidin-5-yl)-1H-pyrazolo[3,4-c]pyridin-1-yl)acetyl)-N-(6-bromo-3-methylpyridin-2-yl)-2-azabicyclo[3.1.0]hexane-3-carboxamide] has a pIC50 of over 6.00.

Same assay, conditions: Table 6; Factor D 80 nM, substrate Z-L-Lys-SBz; read-out: IC50

`CC(=O)c1nn(CC(=O)N2[C@H]3C[C@@]3(CN3CC4(CCCC4)C3)C[C@H]2C(=O)Nc2nc(Br)ccc2C)c2cnc(-c3cnc(C)nc3)cc12` [Compound 207, (1S,3S,5S)-5-((2-azaspiro[3.4]octan-2-yl)methyl)-2-(2-(3-acetyl-5-(2-methylpyrimidin-5-yl)-1H-pyrazolo[3,4-c]pyridin-1-yl)acetyl)-N-(6-bromo-3-methylpyridin-2-yl)-2-] and `CC(=O)c1nn(CC(=O)N2[C@H](C(=O)Nc3nc(Br)ccc3C)C[C@@]3(C)C[C@@H]23)c2cnc(-c3cnc4cc(C)nn4c3)cc12` [Compound 219, (1R,3S,5R)-2-(2-(3-acetyl-5-(2-methylpyrazolo[1,5-a]pyrimidin-6-yl)-1H-pyrazolo[3,4-c]pyridin-1-yl)acetyl)-N-(6-bromo-3-methylpyridin-2-yl)-5-methyl-2-azabicyclo[3.1.0]hexane-3-carboxamide] cannot be ordered by pIC50: over 6.00 for the first, over 6.00 for the second.

Compared with `CC(=O)c1nn(CC(=O)N2[C@H](C(=O)Nc3nc(Br)ccc3C)C[C@@]3(C)C[C@@H]23)c2c(C)cc(-c3cnc(OC4COC4)nc3)cc12` [Compound 208, (1R,3S,5R)-2-(2-(3-acetyl-7-methyl-5-(2-(oxetan-3-yloxy)pyrimidin-5-yl)-1H-indazol-1-yl)acetyl)-N-(6-bromo-3-methylpyridin-2-yl)-5-methyl-2-azabicyclo[3.1.0]hexane-3-carboxamide], `CC(=O)c1nn(CC(=O)N2[C@H](C(=O)Nc3nc(Br)ccc3C)C[C@@]3(C)C[C@@H]23)c2c(C)cc(-c3cnc(C)nc3)nc12` [Compound 210, (1R,3S,5R)-2-(2-(3-acetyl-7-methyl-5-(2-methylpyrimidin-5-yl)-1H-pyrazolo[4,3-b]pyridin-1-yl)acetyl)-N-(6-bromo-3-methylpyridin-2-yl)-5-methyl-2-azabicyclo[3.1.0]hexane-3-carboxamide] is lower in pIC50: over 6.00 for the first, under 5.00 for the second.

First: CC(=O)c1nn(CC(=O)N2[C@H](C(=O)Nc3nc(Br)c(F)cc3C)C[C@@]3(C)C[C@@H]23)c2c(C)nc(-c3cnc(C)nc3)cc12 [Compound 209, (1R,3S,5R)-2-(2-(3-acetyl-7-methyl-5-(2-methylpyrimidin-5-yl)-1H-pyrazolo[3,4-c]pyridin-1-yl)acetyl)-N-(6-bromo-5-fluoro-3-methylpyridin-2-yl)-5-methyl-2-azabicyclo[3.1.0]hexane-3-carboxamide]
Second: CC(=O)c1c2cc(-c3cnc(C)nc3)cc(C(F)(F)F)c2nn1CC(=O)N1[C@H](C(=O)Nc2nc(Br)ccc2C)C[C@@]2(C)C[C@@H]12 [Compound 217, (1R,3S,5R)-2-(2-(3-acetyl-5-(2-methylpyrimidin-5-yl)-7-(trifluoromethyl)-2H-indazol-2-yl)acetyl)-N-(6-bromo-3-methylpyridin-2-yl)-5-methyl-2-azabicyclo[3.1.0]hexane-3-carboxamide]
The pIC50 of the first is higher: over 6.00 for the first, under 5.00 for the second. The first is the more potent here.

Compared with `NC(=O)c1cc(-c2cccnc2)n(CC(=O)N2C[C@H](F)C[C@H]2C(=O)Nc2cccc(Br)n2)n1` [Compound 211, 1-(2-((2S,4R)-2-((6-Bromopyridin-2-yl)carbamoyl)-4-fluoropyrrolidin-1-yl)-2-oxoethyl)-5-(pyridin-3-yl)-1H-pyrazole-3-carboxamide], `Cc1ncc(-c2cc(C(N)=O)nn2CC(=O)N2C[C@H](F)C[C@H]2C(=O)Nc2cccc(Br)n2)cn1` [Compound 215, 1-(2-((2S,4R)-2-((6-Bromopyridin-2-yl)carbamoyl)-4-fluoropyrrolidin-1-yl)-2-oxoethyl)-5-(2-methylpyrimidin-5-yl)-1H-pyrazole-3-carboxamide] is lower in pIC50: over 6.00 for the first, under 5.00 for the second.

First: Cc1ccc(Br)nc1NC(=O)[C@@H]1C[C@@]2(C)C[C@H]2N1C(=O)Cn1nc(C(N)=O)cc1-c1ccco1 [Compound 212, (1R,3S,5R)—N-(6-Bromo-3-methylpyridin-2-yl)-2-(2-(3-carbamoyl-5-(furan-2-yl)-1H-pyrazol-1-yl)acetyl)-5-methyl-2-azabicyclo[3.1.0]hexane-3-carboxamide]
Second: Cc1ccc(Br)nc1NC(=O)[C@@H]1C[C@@]2(C)C[C@H]2N1C(=O)Cn1nc(-c2ccco2)cc1C(N)=O [Compound 213, (1R,3S,5R)—N-(6-Bromo-3-methylpyridin-2-yl)-2-(2-(5-carbamoyl-3-(furan-2-yl)-1H-pyrazol-1-yl)acetyl)-5-methyl-2-azabicyclo[3.1.0]hexane-3-carboxamide]
The pIC50 of the first is higher: over 6.00 for the first, 5.00 to 6.00 for the second. The first is the more potent here.

For `Cc1ccc(Br)nc1NC(=O)[C@@H]1C[C@@]2(C)C[C@H]2N1C(=O)Cn1nc(C(N)=O)cc1-c1cccs1` [Compound 214, (1R,3S,5R)—N-(6-Bromo-3-methylpyridin-2-yl)-2-(2-(3-carbamoyl-5-(thiophen-2-yl)-1H-pyrazol-1-yl)acetyl)-5-methyl-2-azabicyclo[3.1.0]hexane-3-carboxamide], the pIC50 was over 6.00.

Same assay, conditions: Table 8; Factor D 80 nM, substrate Z-L-Lys-SBz; read-out: IC50

First: CC(=O)c1nn(CC(=O)N2[C@H](C(=O)Nc3nc(Br)ccc3C)C[C@@]3(C)C[C@@H]23)c2c(-c3nn[nH]n3)cc(-c3cnc(C)nc3)cc12 [Compound 236, (1R,3S,5R)-2-(2-(3-acetyl-5-(2-methylpyrimidin-5-yl)-7-(2H-tetrazol-5-yl)-1H-indazol-1-yl)acetyl)-N-(6-bromo-3-methylpyridin-2-yl)-5-methyl-2-azabicyclo[3.1.0]hexane-3-carboxamide]
Second: CC(=O)c1nn(CC(=O)N2C[C@@]3(CC(c4ccccc4)=NO3)C[C@H]2C(=O)Nc2nc(Br)ccc2C)c2c(C)cc(-c3cnc(C)nc3)cc12 [Compound 243, (5S,8S)-7-(2-(3-acetyl-7-methyl-5-(2-methylpyrimidin-5-yl)-1H-indazol-1-yl)acetyl)-N-(6-bromo-3-methylpyridin-2-yl)-3-phenyl-1-oxa-2,7-diazaspiro[4.4]non-2-ene-8-carboxamide]
The pIC50 of the first is higher: over 6.00 for the first, 5.00 to 6.00 for the second. The first is the more potent here.

`CC(=O)c1nn(CC(=O)N2[C@H](C(=O)Nc3nc(Br)ccc3C)C[C@@]3(C)C[C@@H]23)c2ccc(-c3cnc(CNC(=O)COCCOCCNC(=O)COCCOCCNC(=O)CC[C@H](NC(=O)CCCCCCCCCCCCCCCCC(=O)O)C(=O)O)nc3)cc12` [Compound 242] and `CC(=O)c1nn(CC(=O)N2CC3(CC(C4CCCCC4)=NO3)C[C@H]2C(=O)Nc2nc(Br)ccc2C)c2c(C)cc(-c3cnc(C)nc3)cc12` (stereo partly drawn) [Compound 244, (8S)-7-(2-(3-acetyl-7-methyl-5-(2-methylpyrimidin-5-yl)-1H-indazol-1-yl)acetyl)-N-(6-bromo-3-methylpyridin-2-yl)-3-cyclohexyl-1-oxa-2,7-diazaspiro[4.4]non-2-ene-8-carboxamide] cannot be ordered by pIC50: over 6.00 for the first, over 6.00 for the second.
